Source: PubChem BioAssay (NCI)
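Compound exposure: 48 hours, 5 concentrations, 96-well plates. TGI: concentration producing complete growth inhibition.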 *1 amine or outer side, *2 acyl side, *3 side chain or, on linkers, in order; H or OH if unused. Where a SMILES comes first, the peptide text is derived from it. [ ]: non-standard residue; d: D form. X33 = C=CCC(O[*:1])C(=O)[*:2]; NMeV = CN[CH](C(=O)O)C(C)C; NMeA = CN[CH](C)C(=O)O; βAla = NCCC(=O)O

Tests used:
Assay in all cases: inhibition of tumour cell growth, NCI panel, 48 h
NCI-H460 lung = tested on: NCI-H460 lung
SW-620 colon = tested on: SW-620 colon
IGROV1 ovarian = tested on: IGROV1 ovarian
PC-3 prostate = tested on: PC-3 prostate
SK-OV-3 ovarian = tested on: SK-OV-3 ovarian
U251 CNS = tested on: U251 CNS
SF-268 CNS = tested on: SF-268 CNS
OVCAR-4 ovarian = tested on: OVCAR-4 ovarian
MDA-N = tested on: MDA-N
A549 NSCLC = tested on: A549 NSCLC
786-0 renal = tested on: 786-0 renal
MDA-MB-231 breast = tested on: MDA-MB-231 breast
SK-MEL-2 melanoma = tested on: SK-MEL-2 melanoma
KM12 colon = tested on: KM12 colon
SK-MEL-28 melanoma = tested on: SK-MEL-28 melanoma
CCRF-CEM leukemia = tested on: CCRF-CEM leukemia
SF-295 CNS = tested on: SF-295 CNS
HOP-92 NSCLC = tested on: HOP-92 NSCLC
A498 renal = tested on: A498 renal
HL-60(TB) leukemia = tested on: HL-60(TB) leukemia

| SMILES | TGI (NCI-H460 lung) [µM] | TGI (SW-620 colon) [µM] | TGI (IGROV1 ovarian) [µM] | TGI (PC-3 prostate) [µM] | TGI (SK-OV-3 ovarian) [µM] | TGI (U251 CNS) [µM] | TGI (SF-268 CNS) [µM] | TGI (OVCAR-4 ovarian) [µM] | TGI (MDA-N) [µM] | TGI (A549 NSCLC) [µM] | TGI (786-0 renal) [µM] | TGI (MDA-MB-231 breast) [µM] | TGI (SK-MEL-2 melanoma) [µM] | TGI (KM12 colon) [µM] | TGI (SK-MEL-28 melanoma) [µM] | TGI (CCRF-CEM leukemia) [µM] | TGI (SF-295 CNS) [µM] | TGI (HOP-92 NSCLC) [µM] | TGI (A498 renal) [µM] | TGI (HL-60(TB) leukemia) [µM] |
| --- | --- | --- | --- | --- | --- | --- | --- | --- | --- | --- | --- | --- | --- | --- | --- | --- | --- | --- | --- | --- |
| O=c1c2cn[nH]c2nc2scc(-c3ccc(Cl)cc3)n12 | > 100 | > 100 | > 100 | > 100 | > 100 | > 100 | > 100 | > 100 | > 100 | > 100 | > 100 | > 100 | > 100 | > 100 | > 100 | > 100 | > 100 | – | – | – |
| O=C(Cc1ccccc1)NCCCN(CCCCN(CCCNC(=O)Cc1ccccc1)C(=O)OCc1ccccc1)C(=O)OCc1ccccc1 | > 100 | > 100 | > 100 | > 100 | > 100 | > 100 | > 100 | > 28.6 | > 100 | > 100 | > 100 | > 100 | > 100 | > 100 | > 100 | > 29.5 | > 100 | > 100 | > 100 | – |
| CN(C)CCn1c(=O)c2ccc3c4c(nn3CCN(C)C)c3cc(O)ccc3n(c1=O)c24 | 0.254 | 3.61 | – | 2.98 | 0.74 | – | 0.591 | 0.392 | 0.603 | 1.54 | 0.424 | 0.727 | 0.576 | 3.5 | 1.58 | 0.656 | 0.271 | – | 0.83 | 1.96 |
| C=CCC1OC(=O)CCNC(=O)C(C)N(C)C(=O)C(C(C)C)N(C)C(=O)C(C(C)CC)NC(=O)C2CCCN2C1=O (stereo unspecified) (cyclo([X33]PI[NMeV][NMeA][βAla]); configuration not given here) | > 100 | > 100 | > 100 | > 100 | – | > 100 | > 100 | > 100 | > 100 | > 100 | > 100 | 62.9 | > 100 | > 100 | > 100 | > 100 | > 100 | > 100 | – | 8.47 |
| COC(=O)C1=C(C)NC(C)=C(C(=O)OC)C1c1cccc(NO)c1 | 31.4 | 28.5 | 30.4 | 30.4 | > 100 | 29.8 | 30.6 | 27.8 | 28.5 | > 100 | 28.3 | 31.4 | 30.8 | 29.4 | 28.3 | > 100 | 83.1 | 23.8 | > 100 | – |
| C/C(=N\NC(=S)NC(C)(C)C)c1ccccn1 | – | > 100 | > 40.6 | – | 80.1 | > 85.9 | > 87.8 | > 100 | > 100 | > 38.4 | 98.4 | > 100 | > 100 | > 100 | > 100 | – | > 100 | 9.47 | > 39.6 | – |
